This note sets out measurements from ChEMBL document CHEMBL1135590, “Design of substrate-based inhibitors of human beta-secretase” (J Med Chem, 2002).

Starred links: 1 amine or outer side, 2 acyl side, 3 side chain; linkers in the order of their positions; H or OH if unused. Non-standard residues stand in square brackets, D forms with d. Residues, ends and D or L forms follow the SMILES beside them. ξ: configuration not given here. LeuΨ(ξCHOHCH2)Val = CC(C)C[C@H](N[*:1])C(O)C[C@H](C(=O)[*:2])C(C)C; X2 = CC(=O)O[C@@H](CC(=O)[*:2])[C@H](CC(C)C)N[*:1]; Sta(3ξ) = CC(C)C[C@H](N[*:1])C(O)CC(=O)[*:2]; X3 = CC(C)C[C@H](N[*:1])[C@H](O)CC(=O)[*:2]; X4 = O=C(CC(O)[C@H](Cc1ccccc1)N[*:1])[*:2]; X5 = O=C(CC(O)[C@H](CC1CCCCC1)N[*:1])[*:2]; Sta = CC(C)C[C@H](N)[C@@H](O)CC(=O)O; X1 = CC(C)CC(N[*:1])C(O)CC(=O)[*:2]; Tle = CC(C)(C)[C@H](N)C(=O)O

The assay deals with Beta-secretase 1 (Homo sapiens, UniProt P56817). The experiment in a line: Inhibition of human brain beta-secretase, using MBPC125Swe (maltose-binding-protein C-125 Swedish) assay. It counts as biochemical.
Sequence of Beta-secretase 1 (P56817 whole entry): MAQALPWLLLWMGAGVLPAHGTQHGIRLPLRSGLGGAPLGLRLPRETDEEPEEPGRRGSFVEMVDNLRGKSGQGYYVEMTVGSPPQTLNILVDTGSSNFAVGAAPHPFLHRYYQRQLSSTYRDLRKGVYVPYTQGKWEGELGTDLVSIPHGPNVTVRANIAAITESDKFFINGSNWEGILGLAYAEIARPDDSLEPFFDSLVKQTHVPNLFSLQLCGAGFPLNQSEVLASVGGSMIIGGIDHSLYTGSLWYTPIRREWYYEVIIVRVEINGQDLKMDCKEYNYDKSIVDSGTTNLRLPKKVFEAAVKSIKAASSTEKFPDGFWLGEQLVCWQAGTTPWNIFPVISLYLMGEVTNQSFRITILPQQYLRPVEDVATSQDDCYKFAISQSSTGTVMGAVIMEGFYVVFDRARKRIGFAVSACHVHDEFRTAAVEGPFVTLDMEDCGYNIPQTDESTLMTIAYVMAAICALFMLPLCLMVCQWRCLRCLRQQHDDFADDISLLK
For orientation: IC50 means the point on the concentration scale where inhibition reaches its midpoint. The low end stands for greater potency in that assay, the high end for weaker potency in that assay. With `CSCC[C@H](NC(=O)[C@@H](NC(C)=O)C(C)C)C(=O)N[C@@H](CC(C)C)C(O)CC(=O)N[C@H](C(=O)N[C@@H](C)C(=O)N[C@@H](C)C(=O)N[C@@H](Cc1ccccc1)C(=O)O)C(C)C` (some centres not stated) (Ac-VM[Sta(3ξ)]VAAF-OH), the IC50 was determined as 2 µM.
For `CSCC[C@H](NC(=O)[C@@H](NC(C)=O)C(C)C)C(=O)N[C@@H](Cc1ccccc1)C(O)CC(=O)N[C@H](C(=O)N[C@@H](C)C(=O)N[C@@H](CCC(=O)O)C(=O)N[C@@H](Cc1ccccc1)C(=O)O)C(C)C` (some centres not stated) (Ac-VM[X4]VAEF-OH) the value was 0.5 µM; for `CSCC[C@H](NC(=O)[C@@H](NC(C)=O)C(C)C)C(=O)NC(CC(C)C)C(O)CC(=O)N1CCC[C@@H]1C(=O)N[C@@H](C)C(=O)N[C@@H](CCC(=O)O)C(=O)N[C@@H](Cc1ccccc1)C(=O)O` (some centres not stated), over 200 µM.
Next, H-TNIKTEEISEVNHDAEFR-OH: over 200 µM; `CC(C)C[C@H](NC(=O)[C@H](CC(N)=O)NC(=O)[C@@H](N)C(C)C)C(O)CC(=O)N[C@H](C(=O)N[C@@H](C)C(=O)N[C@@H](CCC(=O)O)C(=O)N[C@@H](Cc1ccccc1)C(=O)O)C(C)C` (some centres not stated) (H-VN[Sta(3ξ)]VAEF-OH): 9 µM; `CC(C)C[C@H](NC(=O)[C@H](CC(N)=O)NC(=O)[C@H](C)NC(=O)[C@@H](N)CCC(=O)O)C(O)CC(=O)N[C@H](C(=O)N[C@@H](C)C(=O)N[C@@H](CCC(=O)O)C(=O)N[C@@H](Cc1ccccc1)C(=O)O)C(C)C` (some centres not stated) (H-EAN[Sta(3ξ)]VAEF-OH): 2.5 µM.
In turn, `CSCC[C@H](NC(=O)[C@@H](NC(C)=O)C(C)C)C(=O)NC(CC(C)C)C(O)CC(=O)N[C@H](C(=O)N[C@@H](C)C(=O)N[C@@H](CCC(=O)O)C(=O)O)C(C)C` (some centres not stated) (Ac-VM[X1]VAE-OH) displayed an IC50 of 1 µM.
`CC[C@H](C)[C@H](NC(=O)[C@H](CCC(=O)O)NC(=O)[C@H](CCC(=O)O)NC(=O)[C@@H](NC(=O)[C@@H](N)CCCCN)[C@@H](C)O)C(=O)N[C@@H](CO)C(=O)N[C@@H](CCC(=O)O)C(=O)N[C@H](C(=O)N[C@@H](CC(N)=O)C(=O)N[C@@H](CC(C)C)[C@@H](O)CC(=O)N[C@@H](CC(=O)O)C(=O)N[C@@H](C)C(=O)N[C@@H](CCC(=O)O)C(=O)N[C@@H](Cc1ccccc1)C(=O)N[C@@H](CCCN=C(N)N)C(=O)O)C(C)C` (H-KTEEISEVN[Sta]DAEFR-OH) came in with a half-maximal inhibitory concentration (IC50) of 60 µM.
On to `CC(=O)N[C@H](C(=O)N[C@@H](CC(N)=O)C(=O)NC(CC(C)C)C(O)CC(=O)N[C@H](C(=O)N[C@@H](C)C(=O)N[C@@H](CCC(=O)O)C(=O)N[C@@H](Cc1ccccc1)C(=O)O)C(C)C)C(C)C` (some centres not stated) (Ac-VN[X1]VAEF-OH), for which the IC50 worked out at 0.5 µM.
For `CC[C@H](C)[C@H](NC(=O)[C@H](CCC(=O)O)NC(=O)[C@H](CCC(=O)O)NC(=O)[C@@H](NC(=O)[C@@H](N)CCCCN)[C@@H](C)O)C(=O)N[C@@H](CO)C(=O)N[C@@H](CCC(=O)O)C(=O)N[C@H](C(=O)N[C@@H](CC(N)=O)C(=O)N[C@@H](CC(C)C)[C@@H](O)CC(=O)N[C@@H](CC(=O)O)C(=O)N[C@@H](C)C(=O)N[C@@H](CCC(=O)O)C(=O)N[C@@H](Cc1ccccc1)C(=O)O)C(C)C` (H-KTEEISEVN[Sta]DAEF-OH) the value was 40 µM.
For H-TNIKTEEISEVNVDAEFR-OH the value was over 200 µM; for `CSCC[C@H](NC(=O)[C@@H](NC(C)=O)C(C)C)C(=O)NC(CC(C)C)C(O)CC(=O)N[C@H](C(=O)N[C@@H](C)C(=O)O)C(C)C` (some centres not stated) (Ac-VM[X1]VA-OH), over 100 µM; for `CSCC[C@H](NC(=O)[C@@H](NC(C)=O)C(C)C)C(=O)NC(CC(C)C)C(O)CC(=O)N[C@H](C(=O)N[C@@H](C)C(=O)N[C@@H](CCC(=O)O)C(=O)N[C@@H](Cc1ccccc1)C(=O)O)C(C)C` (some centres not stated) (Ac-VM[X1]VAEF-OH), 0.3 µM.
Next, H-TNIKTEEISEVNLFAEFR-OH: 40 µM.
Compound `CSCC[C@H](NC(=O)[C@@H](NC(C)=O)C(C)C)C(=O)NC(CC(C)C)C(O)CC(=O)N[C@@H](C)C(=O)N[C@@H](C)C(=O)N[C@@H](CCC(=O)O)C(=O)N[C@@H](Cc1ccccc1)C(=O)O` (some centres not stated) (Ac-VM[X1]AAEF-OH) returned an IC50 of 5 µM.
Next, H-TNIKTEEISEVNLGAEFR-OH: 119 µM; `CC(C)C[C@H](NC(=O)[C@H](CC(N)=O)NC(=O)[C@@H](NC(=O)[C@@H](N)CCC(=O)O)C(C)C)C(O)CC(=O)N[C@H](C(=O)N[C@@H](C)C(=O)N[C@@H](CCC(=O)O)C(=O)N[C@@H](Cc1ccccc1)C(=O)O)C(C)C` (some centres not stated) (H-EVN[Sta(3ξ)]VAEF-OH): 0.04 µM.
Next, `CC[C@H](C)[C@H](NC(=O)[C@H](CCC(=O)O)NC(=O)[C@H](CCC(=O)O)NC(=O)[C@@H](NC(=O)[C@@H](N)CCCCN)[C@@H](C)O)C(=O)N[C@@H](CO)C(=O)N[C@@H](CCC(=O)O)C(=O)N[C@H](C(=O)N[C@@H](CC(N)=O)C(=O)N[C@@H](CC(C)C)[C@@H](O)CC(=O)N[C@H](C(=O)N[C@@H](C)C(=O)N[C@@H](CCC(=O)O)C(=O)N[C@@H](Cc1ccccc1)C(=O)O)C(C)C)C(C)C` (H-KTEEISEVN[Sta]VAEF-OH): 0.03 µM; `CSCC[C@H](NC(=O)[C@@H](NC(C)=O)C(C)C)C(=O)N[C@@H](CC(C)C)C(O)CC(=O)N[C@H](C(=O)N[C@@H](C)C(=O)N[C@@H](CCC(=O)O)C(=O)N[C@@H](C)C(=O)O)C(C)(C)C` (some centres not stated) (Ac-VM[Sta(3ξ)][Tle]AEA-OH): 20 µM; H-TNIKTEEISEVNGDAEFR-OH: over 200 µM.
Next, H-TNIKTEEISEVNTDAEFR-OH: over 200 µM; `CC[C@H](C)[C@H](NC(=O)[C@H](CCC(=O)O)NC(=O)[C@H](CCC(=O)O)NC(=O)[C@@H](NC(=O)[C@@H](N)CCCCN)[C@@H](C)O)C(=O)N[C@@H](CO)C(=O)N[C@@H](CCC(=O)O)C(=O)N[C@H](C(=O)N[C@@H](CC(N)=O)C(=O)N[C@@H](CC(C)C)[C@H](O)CC(=O)N[C@@H](CC(=O)O)C(=O)N[C@@H](C)C(=O)N[C@@H](CCC(=O)O)C(=O)N[C@@H](Cc1ccccc1)C(=O)O)C(C)C` (H-KTEEISEVN[X3]DAEF-OH): over 200 µM; H-TNIKTEEISEVNLAAEFR-OH: over 200 µM.
For H-TNIKTEEISEVNEDAEFR-OH, the IC50 is over 200 µM.
H-TNIKTEEISEVNLDAEFR-OH showed an IC50 of over 200 µM.
For `CSCC[C@H](NC(=O)[C@@H](NC(C)=O)C(C)C)C(=O)NC(CC(C)C)C(O)CC(=O)N[C@@H](Cc1ccccc1)C(=O)N[C@@H](C)C(=O)N[C@@H](CCC(=O)O)C(=O)N[C@@H](Cc1ccccc1)C(=O)O` (some centres not stated) (Ac-VM[X1]FAEF-OH) the value was 15 µM.
For `CC[C@H](C)[C@H](NC(=O)[C@H](CCC(=O)O)NC(=O)[C@H](CCC(=O)O)NC(=O)[C@@H](NC(=O)[C@@H](N)CCCCN)[C@@H](C)O)C(=O)N[C@@H](CO)C(=O)N[C@@H](CCC(=O)O)C(=O)N[C@H](C(=O)N[C@@H](CC(N)=O)C(=O)N[C@@H](CC(C)C)[C@H](CC(=O)N[C@@H](CC(=O)O)C(=O)N[C@@H](C)C(=O)N[C@@H](CCC(=O)O)C(=O)N[C@@H](Cc1ccccc1)C(=O)O)OC(C)=O)C(C)C` (H-KTEEISEVN[X2]DAEF-OH) the value was over 200 µM.
H-TNIKTEEISEVNLLAEFR-OH: the IC50 stood at 45 µM.
For H-TNIKTEEISEVNADAEFR-OH the value was over 200 µM; for `CSCC[C@H](NC(=O)[C@@H](NC(C)=O)C(C)C)C(=O)NC(CC(C)C)C(O)CC(=O)N[C@H](C(=O)N[C@@H](C)C(=O)N[C@@H](CCC(=O)O)C(=O)N[C@@H](Cc1ccccc1)C(=O)O)[C@H](C)O` (some centres not stated), 100 µM; for `CC[C@H](C)[C@H](NC(=O)[C@H](CCC(=O)O)NC(=O)[C@H](CCC(=O)O)NC(=O)[C@@H](NC(=O)[C@@H](N)CCCCN)[C@@H](C)O)C(=O)N[C@@H](CO)C(=O)N[C@@H](CCC(=O)O)C(=O)N[C@H](C(=O)N[C@@H](CC(N)=O)C(=O)N[C@@H](CC(C)C)[C@@H](O)CC(=O)N[C@@H](C)C(=O)N[C@@H](C)C(=O)N[C@@H](CCC(=O)O)C(=O)N[C@@H](Cc1ccccc1)C(=O)O)C(C)C` (H-KTEEISEVN[Sta]AAEF-OH), 0.5 µM.
For H-TNIKTEEISEVNFDAEFR-OH the value was over 200 µM; for `CSCC[C@H](NC(=O)[C@@H](NC(C)=O)C(C)C)C(=O)N[C@@H](CC1CCCCC1)C(O)CC(=O)N[C@H](C(=O)N[C@@H](C)C(=O)N[C@@H](CCC(=O)O)C(=O)N[C@@H](Cc1ccccc1)C(=O)O)C(C)C` (some centres not stated) (Ac-VM[X5]VAEF-OH), 5 µM.
For `CSCC[C@H](NC(=O)[C@@H](NC(C)=O)C(C)C)C(=O)NC(CC(C)C)C(O)CC(=O)N[C@H](C(=O)O)C(C)C` (some centres not stated) the value was over 100 µM; for H-TNIKTEEISEVNLVAEFR-OH, 3 µM; for `CSCC[C@H](NC(=O)[C@@H](NC(C)=O)C(C)C)C(=O)N[C@@H](CC(C)C)C(O)CC(=O)N[C@@H](CC(=O)O)C(=O)N[C@@H](C)C(=O)N[C@@H](CCC(=O)O)C(=O)N[C@@H](C)C(=O)O` (some centres not stated) (Ac-VM[Sta(3ξ)]DAEA-OH), over 100 µM.
H-TNIKTEEISEVNMDAEFR-OH displayed a 50% inhibitory concentration (IC50) of over 200 µM.
For H-TNIKTEEISEVNLKAEFR-OH the value was 40 µM; for H-TNIKTEEISEVNRDAEFR-OH, over 200 µM; for `CSCC[C@H](NC(=O)[C@@H](NC(C)=O)C(C)C)C(=O)N[C@@H](CC(C)C)C(O)CC(=O)N[C@H](C(=O)N[C@@H](C)C(=O)N[C@@H](CCC(=O)O)C(=O)N[C@@H](C)C(=O)O)C(C)C` (some centres not stated) (Ac-VM[Sta(3ξ)]VAEA-OH), 1.2 µM.
The compound `CC(C)CC(NC(=O)[C@@H](N)CC(N)=O)C(O)CC(=O)N[C@H](C(=O)N[C@@H](C)C(=O)N[C@@H](CCC(=O)O)C(=O)N[C@@H](Cc1ccccc1)C(=O)O)C(C)C` (some centres not stated) (H-N[X1]VAEF-OH) showed an IC50 of over 150 µM.
For `CSCC[C@H](NC(=O)[C@@H](NC(C)=O)C(C)C)C(=O)N[C@@H](CC(C)C)C(O)C[C@H](C(=O)N[C@@H](C)C(=O)N[C@@H](CCC(=O)O)C(=O)N[C@@H](Cc1ccccc1)C(=O)O)C(C)C` (some centres not stated) (Ac-VM[LeuΨ(ξCHOHCH2)Val]AEF-OH) the value was 0.02 µM.
